Experimental data taken from patent US20110144281A1, “AMPHIPHILIC POLYMERS HAVING A CHOLANE CORE” (VALORISATION-RECHERCHE, SOCIETE EN COMMANDITE, priority 2007, published 2011).

Experiments:
[1] = Loading of a drug: solubilisation of ibuprofen in water; type: physicochemical; details: after vigorous agitation
[2] = TEM of aggregates (freeze-fracture etching); type: physicochemical; details: TEM images; sodium cholate at 0.040 molal, CA-PEG4 above CAC
Experimental: For transmission electron microscopy (TEM), different sample concentrations were prepared in milli-Q water for freeze-fracture. A small amount of these solutions were dropped onto a good sample carrier, and then frozen in liquid propane. The frozen samples were then mounted on the sample holder of a BAL-TEC freeze etching instrument (model BAF060). Samples were then fractured, let sublimate for less than 30 seconds before the newly created surface was coated from an angle of 45° (shadowed) with 2 nm of platinum-doped carbon. A 10 nm layer of carbon was then applied perpendicularly. The samples were placed in distilled water to make the platinum-carbon replica float on the water surface. They were then deposited on carbon-coated copper grids. The replicas were examined on a JEOL JEM-2000FX TEM operating at an acceleration voltage of 80 kV.
TEM images of the star polymers shown in FIG. 8 provide unequivocal evidence for the formation of micellar aggregates.

[3] = literature (Reis et al. 2004); cited from earlier work

Compound: CC(C)Cc1ccc(C(C)C(=O)O)cc1 (stereo not drawn) [Ibuprofen]
- solubility in neutral water [1]: very limited

Compound: C[C@H](CCC(=O)[O-])[C@H]1CC[C@H]2[C@@H]3[C@H](O)C[C@@H]4C[C@H](O)CC[C@]4(C)[C@H]3C[C@H](O)[C@]12C.[Na+] [sodium cholate]
- shape of aggregates [2]: cylindrical
- CAC of sodium cholate [3]: 8 millimolal
